System: HeLa tumor
Assay: therapeutic efficacy in HeLa tumor bearing SCID mice, volume of cancer as a function of time
Format: in vivo
Settings: FIG. 6
From the text: The inventors determine the therapeutic efficacy of the multi-responsive targeting nano-containers of the present invention using HeLa tumor bearing SCID mice and monitor the volume of cancer as a function of time.

For `COc1cccc2c1C(=O)c1c(O)c3c(c(O)c1C2=O)C[C@@](O)(C(=O)CO)C[C@@H]3O[C@H]1C[C@H](N)[C@H](O)[C@H](C)O1` [Doxorubicin, doxorubicin], the “volume of the cancer as a function of time” value was “the volume of the cancer increases with time”.

From patent publication US20160263221A1, “MULTI-RESPONSIVE TARGETING DRUG DELIVERY SYSTEMS FOR CONTROLLED-RELEASE PHARMACEUTICAL FORMULATION” (priority 2013, published 2016)
